We go through two compounds from paper PMC5454942, “The Potential of Triterpenoids from Loquat Leaves (Eriobotrya japonica) for Prevention and Treatment of Skin Disorder” (International Journal of Molecular Sciences, 2017).

One data set has as its system Propionibacterium acnes. As to the kind of experiment: Anti-bacterial assay (growth inhibition, MIC/MBC by broth microdilution). It is filed as cell-based. Conditions: for inhibition at 100 µg/mL: concentration 100 μg/mL, read-out: Inhibition Rate (P. acnes growth); for activity against P. acnes (in words): at their maximum solubility. The gist of the method: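 P. acnes NBRC 107605 grown in GAM broth 30 h at 37 °C, then used at 10^5 CFU/mL. Compounds in DMSO incubated with bacteria 30 h at 37 °C; growth read at 630 nm. MIC and MBC by broth microdilution.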

Data set [1] can be described thus: Cell viability of B16 melanoma cells (MTT). Conditions: mouse, B16 melanoma cells.
The test system of data set [2] is Epstein–Barr virus early antigen. More on the design: method as in PMID 16204964, PMID 14745168. Conditions: cited from earlier work.
The next data set relates to NHDF-Ad cells. The experiment in a line: Hyaluronic acid production assay (ELISA, with MTT). It is filed as cell-based, human. Conditions: fold of control. As to the method:
NHDF-Ad cells were seeded on 96-well plates (5 × 10^3 cells/well) for 24 h before the treatment. The medium was replaced with a mixture of 1 μL of sample solution (DMSO < 0.5% per well) and 99 μL of DMEM supplemented with 0.5% FBS. After 72 h cultivation, the amount of hyaluronic acid in the medium was measured using a QnE Hyaluronic acid ELISA kit (Biotech Trading Partners, Encinitas, CA, USA). The amount of hyaluronic acid production was quantitatively calculated from the standard curve. Cell viability was measured by the MTT method, and ascorbic acid was used as a positive control.
On the technique in general: In an ELISA, binding on a coated surface is turned into a signal by an enzyme label.

For data set [3], the system named is B16 melanoma cells. As to the kind of experiment: Anti-melanogenesis assay (melanin content). Conditions: for inhibition at 1 µg/mL: 1 μg/ml; for inhibition at 2.5 µg/mL: 2.5 μg/ml. Format: cell-based, mouse. The procedure, abridged:
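B16 cells treated with samples in DMSO (<0.2%) for 48 h, then re-dosed in fresh medium for a further 24 h; arbutin served as positive control. Melanin content read at 405 nm and viability by MTT at 570 nm.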

The nature of data set [4]: Cell viability of RBL-2H3 cells (parallel MTT). It is filed as cell-based, rat. The following applies: rat; 25 μg/ml, RBL-2H3 cells; read-out: Cell viability. The gist of the method: (§1)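 IgE-sensitized RBL-2H3 cells (0.5 μg/mL anti-DNP IgE, 24 h) treated with sample 30 min in Tyrode buffer, then challenged 1 h with 50 μg/mL DNP-BSA. Released β-hexosaminidase measured with 2 mM p-nitrophenyl-N-acetyl-β-glucosaminide, 3 h, A405; viability by parallel MTT.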

Data set [5] relates to inflammation induced by 12-O-tetradecanoylphorbol-13-acetate (TPA). More on the design: method as in PMID 16204964, PMID 14745168. The following applies: mice; cited from earlier work.
The next data set concerns RBL-2H3 cells. The experiment in a line: β-hexosaminidase release from IgE-stimulated RBL-2H3 mast cells. Format: cell-based, rat. The following applies: Rattus norvegicus; for inhibition at 25 µg/mL: 25 μg/mL. The procedure, abridged:
as §1

The next data set concerns mushroom tyrosinase. As to the kind of experiment: Tyrosinase inhibition assay. It is filed as biochemical. As to the method:
Tyrosinase inhibition activity was evaluated by using L-tyrosine and L-DOPA as substrates, as described. Briefly, 333 μL of 2.5 mM L-tyrosine or L-DOPA solution (Sigma-Aldrich) was mixed with 600 μL of 0.1 M phosphate buffer (pH 6.8) and incubated at 25 °C. Then, 33 μL of the sample solution (dissolved in DMSO in various concentrations) and 33 μL of 1380 units/mL mushroom tyrosinase (Sigma-Aldrich) were added to the mixture. The optical density was measured at 475 nm up to the appropriate time. Kojic acid (Sigma-Aldrich) was used as the positive control; the final concentration is 3.3 μg/mL.

Data set [6] concerns B16 melanoma cells. As to the kind of experiment: Cell viability of B16 melanoma cells (MTT). The following applies: B16 cells.
Setting [7] is: Mus musculus, B16 cells, read-out: Inhibition rate (100% − melanin synthesis).
Setting [8] is: Mus musculus, B16 melanoma cells, read-out: IC50 (melanin synthesis).
[9] abbreviates: Mus musculus, B16 melanoma cells, read-out: IC50 melanin.
Setting [10] is: RBL-2H3, read-out: Inhibition Rate (β-hexosaminidase release).

Values after ≈ are worked out from the molar mass of the structure shown. Values joined by “and” are separate entries in the source; they are usually repeats but may differ in a detail not shown here. Equal entries are not always repeated. Where two headings read alike, the source gives them in different places.

As to `C[C@H]1[C@H](C)CC[C@]2(C(=O)O)CC[C@]3(C)C(=CC[C@@H]4[C@@]5(C)CC[C@H](O)C(C)(C)[C@@H]5CC[C@]43C)[C@H]12` [Compound 1, Ursolic acid], the MBC in the data set with Propionibacterium acnes (Cutibacterium acnes, P. acnes, broth microdilution, read-out: MBC) stood at 100 µg/mL (≈ 219 µM). For the same compound, the MIC in the data set with Propionibacterium acnes (Cutibacterium acnes, P. acnes, broth microdilution, read-out: MIC) worked out at 50 µg/mL (≈ 109 µM). In addition, the inhibition at 100 µg/mL in the data set on Propionibacterium acnes (Cutibacterium acnes) was 109.8 ± 0.5%. For the same compound, the “activity against P. acnes (in words)” value with Propionibacterium acnes is reported as “active”. Further, the CC50 at 72 h in [1] is 4.3 µg/mL and 9.4 µM. Besides, the “inhibitory activity against TPA-induced Epstein–Barr virus early antigen activation (in words)” value in data set [2] was “significant inhibitory activity”. In addition, the “HA/CV value (hyaluronic acid %/cell viability %)” value in the data set on NHDF-Ad cells (5 μg/mL) is given as 4.7. Besides, in the data set with B16 melanoma cells [3] (Mus musculus, 0.5 μg/ml, B16 cells, read-out: Inhibition rate (100% − melanin synthesis)), the inhibition at 0.5 µg/mL came out at 4.2 ± 1.7%. Further, the inhibition at 1 µg/mL with B16 melanoma cells [3] (setting [7]) stood at 24 ± 0.8%. For the same compound, the inhibition at 2.5 µg/mL with B16 melanoma cells [3] (setting [7]) was found to be 58.5 ± 3.2%. In addition, the IC50 in the data set with B16 melanoma cells [3] (setting [8]) is 4.8 µM; with B16 melanoma cells [3] (setting [9]) it was 2.2 µg/mL; in the data set with RBL-2H3 cells (IgE-stimulated RBL-2H3 cells, read-out: IC50 (β-hexosaminidase release)), 39.5 µM. Moreover, the viability at 25 μg/ml in data set [4] amounted to 103 ± 5.3%. Besides, in data set [5], the “inhibitory activity against TPA-induced inflammation (in words)” value is on record as “significant inhibitory activity”. Further, in the data set on RBL-2H3 cells (RBL-2H3, 5 μg/mL, read-out: Inhibition Rate (β-hexosaminidase release)), the inhibition at 5 µg/mL stood at 0%. Further, the inhibition at 12.5 µg/mL in the data set with RBL-2H3 cells (RBL-2H3, 12.5 μg/mL, read-out: Inhibition Rate (β-hexosaminidase release)) turned out to be 37.6 ± 3%. Also, the inhibition at 25 µg/mL in the data set on RBL-2H3 cells (setting [10]) came out at 72.5 ± 3%. The “inhibitory effect on tyrosinase (in words)” value in the data set on mushroom tyrosinase (L-DOPA as substrate) was “no inhibitory effect”. The “inhibitory activity on tyrosinase (in words)” value in the data set on mushroom tyrosinase (L-tyrosine as substrate, relatively high concentrations) is listed as “moderate inhibitory activity”.

As for `C[C@@H]1CC[C@]2(C(=O)O)CC[C@]3(C)C(=CC[C@@H]4[C@@]5(C)CC[C@H](O)C(C)(C)[C@@H]5CC[C@]43C)[C@@H]2[C@]1(C)O` [Compound 10, Pomolic acid], the inhibition at 100 µg/mL with Propionibacterium acnes (Cutibacterium acnes) stood at 84.4 ± 1.2%. The “activity against P. acnes (in words)” value in the data set on Propionibacterium acnes is “active”. The CC50 at 72 h in data set [1] was 4.9 µg/mL and 10.5 µM. The “Inhibition rate (100% − cell viability)” value in the data set on B16 melanoma cells [6] (1 μg/ml) is listed as 1.9 ± 5.4%; in the data set with B16 melanoma cells [6] (2.5 μg/ml) it was 0.0 ± 6.1%; in the data set with B16 melanoma cells [6] (5 μg/ml) it was 50.9 ± 4.4%; in the data set on B16 melanoma cells [6] (10 μg/ml), 68.4 ± 1.5%. In addition, in the data set on NHDF-Ad cells (10 μg/mL), the “HA/CV value (hyaluronic acid %/cell viability %)” value is 5.8. Moreover, in the data set on B16 melanoma cells [3] (B16 melanoma cells), the “S.I (selectivity index, CC50 value/IC50 value)” value is listed as 0.8. Moreover, the inhibition at 1 µg/mL in the data set with B16 melanoma cells [3] (setting [7]) was 3.2 ± 8.2%. For the same compound, the inhibition at 2.5 µg/mL with B16 melanoma cells [3] (setting [7]) was found to be 28.4 ± 1.5%. Also, the inhibition at 5 µg/mL in the data set with B16 melanoma cells [3] (Mus musculus, 5 μg/ml, B16 cells, read-out: Inhibition rate (100% − melanin synthesis)) was 43.9 ± 1.9%. Further, the inhibition at 10 µg/mL in the data set with B16 melanoma cells [3] (Mus musculus, 10 μg/ml, B16 cells, read-out: Inhibition rate (100% − melanin synthesis)) worked out at 55.8 ± 8.1%. The IC50 worked out at 14 µM in the data set with B16 melanoma cells [3] (setting [8]) and 6.6 µg/mL with B16 melanoma cells [3] (setting [9]). Besides, in data set [4], the viability at 25 μg/ml was 77 ± 5.3%. The inhibition at 25 µg/mL with RBL-2H3 cells (setting [10]) turned out to be 22.4 ± 1.9%.

What is called MBC is the lowest tested concentration that kills the bacteria rather than only halting them. In general, MIC refers to the least concentration at which growth counts as inhibited. By inhibition is commonly meant the relative decrease from the control value, in per cent. For orientation: CC50 means the concentration at which the toxic effect on the cells reaches its halfway point. High values mean better tolerance by the cells, low ones harm at low concentration. The term IC50 denotes the concentration that inhibits the measured activity by half. The viability is a read-out of living cells in per cent, often relative to untreated cells.
